Measurements as given in patent publication US10106516B2, “PDE10 inhibitors and related compositions and methods” (Omeros Corporation, priority 2010, dated 2018).
pIC50: −log10 of the molar value.

Target: T1, PDE10 (Homo sapiens, UniProt Q9Y233)
T1 construct: made in house; host or cells: Sf9 insect cells (baculovirus)
Assay: PDE10 biochemical assay (two-step Thompson and Appleman method or SPA)
Conditions: PDE10 inhibition
Protocol: In short, cAMP is spiked with (^3H)cAMP and incubated with PDE10 and various concentrations of a compound of structure (I). After the appropriate incubation time, the reaction is terminated by heating. The mixture is then subjected to treatment with snake venom phosphatase. The phosphatase hydrolyzes any AMP in the mixture, but leaves unreacted cAMP intact. Thus, by separating cAMP from the mixture and determining its concentration (by radiography), the percent of inhibition can be determined. IC50 values can be calculated by performing the experiment at several concentrations using standard graphical means. A detailed description of the actual technique used for IC50 assays as set forth in following Examples.
The phosphodiesterase (PDE) assay was performed using recombinant human PDE 1A3, 2A3, 3 catalytic region, 4 catalytic region, 5 catalytic region, 7A, 8A, 9A2, 10A1 and 11A1 enzymes expressed in a baculoviral system using Sf9 cells. PDE activity was measured using a modification of the two-step method of Thompson and Appleman described above which was adapted for 96 well plate format. […] The final assay volume was 110 μl with assay buffer (10 mM MgCl2; 40 mM Tris.HCl; pH 7.4). Reactions were initiated with enzyme and incubated with (^3H)-substrate and substance for 20 minutes at 30° C. The reaction was terminated by denaturing the enzyme (heating the reaction to 70° C. for 2 minutes). The reaction was then cooled at 4° C. for 10 minutes before the addition of snake venom (Crotalus atrox, 0.2 mg/ml) for 10 minutes at 30° C., thus allowing non-specific hydrolysis of the tritiated substrate. Separation of the remaining unhydrolysed cyclic nucleotide was achieved by a batch binding of the mixture to activated Dowex (200 μl) anion exchange resin. The anion exchange resin bound the charged nucleotides, leaving only hydrolysed (^3H) substrate in the soluble fraction. The soluble fraction (50 μl) was then added to microscint-20 (200 μl) and counted on a Top Count Plate reader. Radioactivity units were plotted against inhibitor concentration and IC50 values obtained using Graph Pad Prism software.
Alternatively, phosphodiesterase activity was measured by scintillation proximity assay (SPA) with [^3H]-cGMP as substrate. Purified PDE10 was diluted and stored in 25 mM Tris-Cl (pH 8.0)/100 mM NaCl/0.05% Tween 20/50% glycerol/3 mM DTT. Assays contained (final concentrations): 50 mM Tris-Cl (pH 7.5)/8.3 mM MgCl2/1.7 mM EGTA/0.5 mg/ml BSA/5% DMSO and 2 ng PDE10 in a final volume of 0.1 mL. Inhibition was evaluated at 8 concentrations in duplicate. Reactions were initiated by addition of enzyme and were terminated after 20 minutes at 30° C. by the addition of 50 μl of SPA beads containing Zn^++. The mixture was shaken, allowed to settle for 3 hours, and counted in a Wallac plate counter. Results (net cpm) were fitted to a four parameter logistic model using Excel Solver®.

T1 sequence (Q9Y233 1-779 isoform Q9Y233-1): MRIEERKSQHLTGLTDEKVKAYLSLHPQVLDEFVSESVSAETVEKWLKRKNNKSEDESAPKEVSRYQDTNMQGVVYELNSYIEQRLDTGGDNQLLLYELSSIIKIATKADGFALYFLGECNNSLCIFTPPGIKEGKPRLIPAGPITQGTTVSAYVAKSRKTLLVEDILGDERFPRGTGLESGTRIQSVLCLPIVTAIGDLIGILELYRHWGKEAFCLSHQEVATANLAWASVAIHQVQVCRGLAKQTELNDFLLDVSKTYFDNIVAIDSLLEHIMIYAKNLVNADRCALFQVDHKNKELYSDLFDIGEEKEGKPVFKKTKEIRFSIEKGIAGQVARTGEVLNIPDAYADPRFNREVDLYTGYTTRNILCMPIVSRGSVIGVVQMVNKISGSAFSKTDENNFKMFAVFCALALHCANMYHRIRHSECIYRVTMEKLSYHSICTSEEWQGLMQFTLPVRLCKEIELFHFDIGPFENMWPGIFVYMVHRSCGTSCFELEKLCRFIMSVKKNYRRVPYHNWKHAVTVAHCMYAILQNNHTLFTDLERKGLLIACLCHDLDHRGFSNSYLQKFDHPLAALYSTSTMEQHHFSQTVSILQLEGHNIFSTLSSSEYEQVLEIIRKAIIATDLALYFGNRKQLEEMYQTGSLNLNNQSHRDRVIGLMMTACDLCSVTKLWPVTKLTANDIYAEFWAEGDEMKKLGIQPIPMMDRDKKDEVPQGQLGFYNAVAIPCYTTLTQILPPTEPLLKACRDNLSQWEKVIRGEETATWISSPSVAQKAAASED

SMILES | pIC50
COc1cc(-c2ccc(C(=O)C(OC)c3ccc(-c4csc(C)n4)cc3)o2)cc(OC)c1Br (centres unmarked) [Compound 35-1, 1-(5-(4-Bromo-3,5-Dimethoxyphenyl)Furan-2-Yl)-2-Methoxy-2-(4-(2-Methylthiazol-4-Yl)Phenyl)Ethanone] | ≥ 6.00
COc1cc(-c2ccc(C(=O)C(OC)c3ccc(-c4cccnc4)cc3)o2)cc(OC)c1Br (centres unmarked) [Compound 37-1, 1-(5-(4-Bromo-3,5-Dimethoxyphenyl)Furan-2-Yl)-2-Methoxy-2-(4-(Pyridin-3-Yl)Phenyl)Ethanone] | ≥ 6.00
CCOC(C(=O)c1ccc(-c2cc(OC)c(Br)c(OC)c2)o1)c1ccc(N2CCOCC2)cc1 (centres unmarked) [Compound 38-1, 1-(5-(4-Bromo-3,5-Dimethoxyphenyl)Furan-2-Yl)-2-Ethoxy-2-(4-Morpholinophenyl)Ethanone] | ≥ 6.00
COc1cc(-c2ccc(C(=O)C(OC)c3ccc(-c4nnc(C)o4)cc3)o2)cc(Br)c1OC (centres unmarked) [Compound 39-1, 1-(5-(3-Bromo-4,5-Dimethoxyphenyl)Furan-2-Yl)-2-Methoxy-2-(4-(5-Methyl-1,3,4-Oxadiazol-2-Yl)Phenyl)Ethanone] | ≥ 6.00
COc1cc(-c2ccc(C(=O)C(OC)c3ccc(-c4nnc(C)o4)cc3)o2)cc(Cl)c1OC (centres unmarked) [Compound 40-1, 1-(5-(3-Chloro-4,5-Dimethoxyphenyl)Furan-2-Yl)-2-Methoxy-2-(4-(5-Methyl-1,3,4-Oxadiazol-2-Yl)Phenyl)Ethanone] | ≥ 6.00
COc1cc(-c2ccc(C(=O)C(OCC3CC3)c3ccc(N4CCOCC4)cc3)o2)cc(OC)c1Br (centres unmarked) [Compound 41-1, 1-(5-(4-Bromo-3,5-Dimethoxyphenyl)Furan-2-Yl)-2-(Cyclopropylmethoxy)-2-(4-Morpholinophenyl)Ethanone] | ≥ 6.00
COc1ccc(C(OC)C(=O)c2ccc(-c3cc(OC)c(Br)c(OC)c3)o2)cn1 (centres unmarked) [Compound 42-1, 1-(5-(4-Bromo-3,5-Dimethoxyphenyl)Furan-2-Yl)-2-Methoxy-2-(6-Methoxypyridin-3-Yl)Ethanone] | ≥ 6.00
COc1cc(-c2ccc(C(=O)C(OC)c3ccc(CN(C)C)cc3)o2)cc(OC)c1Br (centres unmarked) [Compound 43-1, 1-(5-(4-Bromo-3,5-Dimethoxyphenyl)Furan-2-Yl)-2-(4-((Dimethylamino)Methyl)Phenyl)-2-Methoxyethanone] | ≥ 6.00
COc1cc(-c2ccc(C(=O)C(OC)c3ccc(N4CCOCC4)nc3)o2)cc(OC)c1Br (centres unmarked) [Compound 44-1, 1-(5-(4-Bromo-3,5-Dimethoxyphenyl)Furan-2-Yl)-2-Methoxy-2-(6-Morpholinopyridin-3-Yl)Ethanone] | ≥ 6.00
COc1cc(-c2ccc(C(=O)C(OC)c3ccc(-c4cnccn4)cc3)o2)cc(OC)c1Br (centres unmarked) [Compound 45-1, 1-(5-(4-Bromo-3,5-Dimethoxyphenyl)Furan-2-Yl)-2-Methoxy-2-(4-(Pyrazin-2-Yl)Phenyl)Ethanone] | ≥ 6.00
CCOC(C(=O)c1ccc(-c2cc(OC)c(OC)c(OC)c2)o1)c1ccc(-c2nnc(C)o2)cc1 (centres unmarked) [Compound 46-1, 2-Ethoxy-2-(4-(5-Methyl-1,3,4-Oxadiazol-2-Yl)Phenyl)-1-(5-(3,4,5-Trimethoxyphenyl)Furan-2-Yl)Ethanone] | ≥ 6.00
COc1cc(-c2ccc(C(=O)C(OC)c3ccc(N4CCOCC4)cc3)o2)cc(OC)c1F (centres unmarked) [Compound 48-1, 1-(5-(4-Fluoro-3,5-Dimethoxyphenyl)Furan-2-Yl)-2-Methoxy-2-(4-Morpholinophenyl)Ethanone] | ≥ 6.00
COc1cc(-c2ccc(C(=O)C(OC)c3ccc(N4CCOCC4)cc3)o2)cc(OC)c1Cl (centres unmarked) [Compound 50-1, 1-(5-(4-Chloro-3,5-Dimethoxyphenyl)Furan-2-Yl)-2-Methoxy-2-(4-Morpholinophenyl)Ethanone] | ≥ 6.00
COc1ccc(-c2ccn(C(=O)C(OC)c3ccc(F)cc3)n2)cc1OC (centres unmarked) [Compound 51-1, 1-(3-(3,4-Dimethoxyphenyl)-1H-Pyrazol-1-Yl)-2-(4-Fluorophenyl)-2-Methoxyethanone] | ≥ 6.00
COc1cc(-c2ccn(C(=O)C(OC)c3ccc(N4CCOCC4)cc3)n2)cc(OC)c1Br (centres unmarked) [Compound 52-1, 1-(3-(4-Bromo-3,5-Dimethoxyphenyl)-1H-Pyrazol-1-Yl)-2-Methoxy-2-(4-Morpholinophenyl)Ethanone] | ≥ 6.00
COc1ccc(-c2ccn(C(=O)C(OC)c3ccc(N4CCOCC4)cc3)n2)cc1OC (centres unmarked) [Compound 53-1, 1-(3-(3,4-Dimethoxyphenyl)-1H-Pyrazol-1-Yl)-2-Methoxy-2-(4-Morpholinophenyl)Ethanone] | ≥ 6.00
COc1cc(-c2nc(C(=O)C(OC)c3ccc(N4CCOCC4)cc3)no2)cc(OC)c1Br (centres unmarked) [Compound 54-1, 1-(5-(4-Bromo-3,5-Dimethoxyphenyl)-1,2,4-Oxadiazol-3-Yl)-2-Methoxy-2-(4-Morpholinophenyl)Ethanone] | ≥ 6.00
COc1cc(-c2nc(C(=O)C(OC)c3ccc(N4CCOCC4)cc3)oc2C)cc(OC)c1Br (centres unmarked) [Compound 55-1, 1-(4-(4-Bromo-3,5-Dimethoxyphenyl)-5-Methyloxazol-2-Yl)-2-Methoxy-2-(4-Morpholinophenyl)Ethanone] | ≥ 6.00
COc1cc(-c2cnc(C(=O)C(OC)c3ccc(N4CCOCC4)cc3)o2)cc(OC)c1Br (centres unmarked) [Compound 56-1, 1-(5-(4-Bromo-3,5-Dimethoxyphenyl)Oxazol-2-Yl)-2-Methoxy-2-(4-Morpholinophenyl)Ethanone] | ≥ 6.00
COc1cc(-c2ccc(C(=O)C(OC)c3ccc(-c4nnc(C)o4)cc3)s2)cc(OC)c1Br (centres unmarked) [Compound 57-1, 1-(5-(4-Bromo-3,5-Dimethoxyphenyl)Thiophen-2-Yl)-2-Methoxy-2-(4-(5-Methyl-1,3,4-Oxadiazol-2-Yl)Phenyl)Ethanone] | ≥ 6.00
COc1cc(-c2ccc(C(=O)C(OC)c3ccc(N4CCOCC4)cc3)s2)cc(OC)c1Br (centres unmarked) [Compound 59-1, 1-(5-(4-Bromo-3,5-Dimethoxyphenyl)Thiophen-2-Yl)-2-Methoxy-2-(4-Morpholinophenyl)Ethanone] | ≥ 6.00
COc1cc(-c2ccc(C(=O)C(OC)c3ccc(-c4nnc(C5CC5)o4)cc3)o2)cc(OC)c1OC (centres unmarked) [Compound 60-1, 2-(4-(5-Cyclopropyl-1,3,4-Oxadiazol-2-Yl)Phenyl)-2-Methoxy-1-(5-(3,4,5-Trimethoxyphenyl)Furan-2-Yl)Ethanone] | ≥ 6.00
COc1cc(-c2ccc(C(=O)C(OC)c3ccc(-c4nnc(C)o4)cc3)o2)cc(OC)c1F (centres unmarked) [Compound 62-1, 1-(5-(4-Fluoro-3,5-Dimethoxyphenyl)Furan-2-Yl)-2-Methoxy-2-(4-(5-Methyl-1,3,4-Oxadiazol-2-Yl)Phenyl)Ethanone] | ≥ 6.00
CCOC(C(=O)c1ccc(-c2cc(OC)c(Cl)c(OC)c2)o1)c1ccc(N2CCOCC2)cc1 (centres unmarked) [Compound 64-1, 1-(5-(4-Chloro-3,5-Dimethoxyphenyl)Furan-2-Yl)-2-Ethoxy-2-(4-Morpholinophenyl)Ethanone] | ≥ 6.00
COc1cc(-c2coc(C(=O)C(OC)c3cccc(N4CCOCC4)c3)n2)cc(OC)c1Br (centres unmarked) [Compound 65-1] | ≥ 6.00
COc1cc(-c2coc(C(=O)C(OC)c3ccc(-n4cncn4)cc3)n2)cc(OC)c1Br (centres unmarked) [Compound 65-2] | ≥ 6.00
COc1cc(-c2coc(C(=O)C(OC)c3ccc(OC(F)(F)F)cc3)n2)cc(OC)c1Br (centres unmarked) [Compound 65-3] | ≥ 6.00
COc1cc(-c2coc(C(=O)C(OC)c3ccc(-n4ccnn4)cc3)n2)cc(OC)c1Br (centres unmarked) [Compound 65-4] | ≥ 6.00
COc1cc(-c2coc(C(=O)C(OC)c3ccc(-n4nccn4)cc3)n2)cc(OC)c1Br (centres unmarked) [Compound 65-5] | ≥ 6.00
